In PMC4335020, “Single Oral Dose Pharmacokinetics of Decursin and Decursinol Angelate in Healthy Adult Men and Women” (PLoS ONE, 2015):
Each block holds one compound with its values, some of them ahead of it.

Key:
[1] = Urinary excretion after single oral dose of Cogni.Q; type: in vivo, human; settings: pooled 0-24 h urine; for number of subjects with analyte detected in urine: of 20 subjects
Protocol: Plasma was prepared by centrifuging the heparinized blood at 1000 g for 15 minutes at room temperature. Urine samples (40mL) were collected within time spans of 0–4, 4–8, 8–12 and 12–24 hours (total volume of urine was recorded). All plasma and urine samples were put on dry ice immediately and then stored at -80°C freezer until analysis.
Urine samples from each subject collected from 0 to 24 hours post-dose were pooled proportional to the volume of urine in each sampling period. Urine sample (200μL) was spiked with 5 μL of prednisolone solution (10 ng/μL, IS), and extracted with 1500 μL of ethyl acetate. The ethyl acetate fraction was recovered and dried using a SpeedVac. The dried residue was reconstituted in 50 μL of methanol for UHPLC-MS/MS analysis and 5 μL of the sample was injected.
Urine samples from each subject were pooled proportional to the amount of urine in each sampling period (hours 0–4, 4–8, 8–12 and 12–24). DA was detected in its original form in the urine of 14 subjects whereas D was only detected in the urine of 3 subjects. The levels of detectable D and DA ranged from 0.06∼1.74 nmol/L. DOH was detected in the urine of all subjects with a mean concentration of 289 nmol/L. These extractable unmodified pyranocoumarin forms accounted for the 24-hour cumulative excretion of less than 1% of the ingested pyranocoumarins. Further work is needed to estimate the extent of additional metabolites (free and conjugated forms) in urine and plasma.

[2] = Stability of D and DA in fresh human whole blood and plasma; type: in vitro ADME; settings: 37°C for 1 h, no detectable generation of DOH and other metabolites (data not shown)
Protocol: To rule out possible artifacts of blood collection, processing and blood-borne esterases, we tested the stability of D and DA in freshly obtained human whole blood and plasma. There was no loss of D and DA in plasma and whole blood after incubation at 37°C for 1 h, with no detectable generation of DOH and other metabolites (data not shown).

[3] = parameters: method as in PMID 24026903; settings: in vitro; cited from earlier work
[4] = parameters: method as in ref (9) of IRB protocol; settings: ref (9) of IRB protocol; cited from earlier work
[5] = parameters: method as in ref 23 = [23]; 23 Zhang J, Li L, Tang S, Zhang Y, Markiewski M, et al. (2013) Subchronic Toxicological Evaluation of Ethanol Extract of Medicinal Herb Angelica gigas Nakai and its Pyranocoumarin Tissue Distribution; settings: rodents; cited from earlier work
[6] = parameters: method as in PMID 23364885; settings: rat n = 3, oral 33.5 mg/kg D and 21.5 mg/kg DA, cited from earlier work; for Cmax: read-out: C max, nmol/, Mean (SD)
[7] = test system: cultured prostate and breast cancer cells; parameters: method as in PMID 15705905, PMID 17363485, PMID 17986353; settings: up to 100 μM; cited from earlier work
[8] = test system: human umbilical vein endothelial (HUVEC) cells; parameters: method as in PMID 19307054; settings: 1 μmol/L; cited from earlier work
[9] = test system: primary cultures of rat cortical cells; parameters: method as in PMID 17637179; settings: as low as 0.1 μmol/L; cited from earlier work
[10] = test system: murine colon carcinoma CT-26 cells; parameters: method as in PMID 21170925; settings: daily oral 10 mg/kg for 14 days, 30 minutes prior to CT-26 injection through tail vein; cited from earlier work

- number of subjects with analyte detected in urine [1]: 14 subjects
- loss after incubation in plasma and whole blood [2]: no loss
Structure (SMILES): C/C=C(/C)C(=O)O[C@H]1Cc2cc3ccc(=O)oc3cc2OC1(C)C [DA, decursinol angelate]
- rate of metabolism by human vs mouse and rat liver S9 fraction [3]: metabolized more slowly by human liver S9 fraction
- rate of metabolism by human vs mouse and rat liver microsomes [4]: metabolized much slower by human
- tissue/plasma ratios [5]: substantially greater than that of DOH
- AUC0–48h, h nmol/L, Mean (SD) [6]: 64.3 (8.8) h nmol/L
- T max, h, median (range) [6]: 1 (0.5–2) h
- Cmax [6]: 7.3 nM

Structure (SMILES): CC1(C)Oc2cc3oc(=O)ccc3cc2C[C@@H]1O [DOH, decursinol]
- number of subjects with analyte detected in urine [1]: all subjects
- urine mean concentration ([1]; all subjects): 289 nmol/L
- anti-proliferative effect [7]: little anti-proliferative effect
- AUC0–48h, h nmol/L, Mean (SD) [6]: 81272 (6829) h nmol/L
- T max, h, median (range) [6]: 4 (3–8) h
- Cmax [6]: 5640 nM
- VEGF-induced proliferation and capillary-tube formation [8]: significantly inhibited
- protective effect on glutamate-injured cells [9]: strong protective effect

Structure (SMILES): CC(C)=CC(=O)O[C@H]1Cc2cc3ccc(=O)oc3cc2OC1(C)C [D, decursin]
- number of subjects with analyte detected in urine [1]: 3 subjects
- loss after incubation in plasma and whole blood [2]: no loss
- rate of metabolism by human vs mouse and rat liver S9 fraction [3]: metabolized more slowly by human liver S9 fraction
- rate of metabolism by human vs mouse and rat liver microsomes [4]: metabolized much slower by human
- tissue/plasma ratios [5]: substantially greater than that of DOH
- AUC0–48h, h nmol/L, Mean (SD) [6]: 36.0 (14.3) h nmol/L
- T max, h, median (range) [6]: 1 (0.5–2) h
- Cmax [6]: 7.3 nM
- formation of tumor nodules in the lungs and lung weight [10]: reduced the formation of tumor nodules in the lungs and decreased lung weight
